Test system: primary cortical cultures
Assay: Optimization of the NO sensor FL2 in rat primary cortical cultures
Type: cell-based
Conditions: 500 μM DETA-NONOate for 30 min, DIV 14-21; FIG. 20
Description: FIG. 20. Optimization of the NO sensor, FL2, using an NO donor, DETA-NONOate. FL2 dye was loaded after exposing primary cortical cultures (DIV 14-21) to 500 μM DETA-NONOate for 30 min. […] Control cultures exposed to dye without an NO donor are shown in the upper panel. A single representative experiment is shown.
Embryos were harvested by cesarean section from anesthetized pregnant Sprague-Dawley rats at embryonic day 18. Cerebral cortices were isolated and dissociated with Accumax (Innovative Cell Technologies, Inc) digestion for 20 min at 37° C. and triutration with Pasteur pipette. Poly-ornithine and lamine-coated 96 well plates or 8 well-chambered coverglass (Lab-Tek; 70378-81) were seeded with 4×10^4 or 8×10^4 cells respectively in neurobasal medium (Life Technologies) supplemented with B27 (Life Technologies), 0.5 mM glutamine, 25 μM β-mercaptoethanol, penicillin (100 IU/ml) and streptomycin (100 μg/ml). One third of the medium was changed every 3 to 4 days. As a surrogate marker of cell viability, cellular ATP content was measured using the ViaLight Plus kit (Lonza).
The FL2 sensor used in this study was a non-acidified and non-esterified version of the FL2-related sensors that have been previously published^23,24,53,55. A working 1 mM solution of FL2 (batch SJL #1768) in DMSO (Sigma 276855) was stable for at least 3 months at −20° C. […]

## NCCN(CCN)/[N+]([O-])=N/O [DETA-NONOate]
  FL2 response (NO signal): robust FL2 response

Source: patent US11047848B2, “Cellular discovery platform for neurodegenerative diseases” (Whitehead Institute for Biomedical Research, priority 2013, dated 2021)
